Experiments:
Human DYRK1B = target: T1, Human DYRK1B (Homo sapiens, UniProt Q9Y463); test: DYRK1B Kinase TR-FRET (IMAP-Tb) Assay; assay type: biochemical; settings: for IC50: TR-FRET, ATP 70 μM, 37° C. for 60 minutes, averages of multiple runs, read-out: Enzyme IC50 DYRK1B; for inhibition at 10 µM: 10 μM test compound, reported where IC50 was not determined, read-out: Enzyme DYRK1B % inhibition at 10 μM test compound concentration
T1 construct: purchased Invitrogen PR8350B (former PV4649)
Description: The kinase TR-FRET (IMAP-Tb) assay uses a fluorescence labeled substrate peptide in the kinase reaction. Upon phosphorylation by the kinase, phosphopeptide is produced, which will be detected by the binding solution provided in IMAP TR-FRET binding kit. After the completion of the kinase reaction, the reaction will be stopped by adding the binding solution containing terbium tracer. This tracer is immobilized on the surface of the IMAP beads, which also contain metal ions on the beads that bind to the phospho-groups of the products. Thus the phosphorylated product of the reaction can enter into close proximity to the tracer, producing resonance energy transfer. Due to the long lifetime of terbium (Tb) fluorescence the detection can be run in time resolved mode, which virtually eliminates fluorescence interference from assay components or compounds. […] IC50 is the amount of test compound that inhibits 50% of the activity of DYRK1B in this assay. […] 1. Human DYRK1B: from Invitrogen. Part # PR8350B (former PV4649) 2. Substrate Peptide: RRRFRPASPLRGPPK 3. IMAP TR-FRET IPP Explorer Kit: from Molecular Devices. Part # R8157 4. Kinase Assay Buffer (KAB): 10 mM HEPES pH 7.0, 50 mM NaCl, 5 mM MgCl2, 1 mM DTT, 1 mM NaVO4, 200 μg/mL BSA (0.02%) 5. Assay Plate: Remp polypropylene clear 384-well microplate. Cat#23490-102 6. Detection Plate: Costa black 384-well microplate. Cat #3710 Assay Procedure: This assay was performed as follows: 1. Transfer 1.5 μL of 20× compound solution to each well of an assay plate. 2. Add to each well 22.5 μL of KAB Buffer. 3. Add to each well 3 μL of the solution of DYRK1B and ATP. […] Add to each well 3 μL of the substrate peptide. […] Incubate the assay plates at 37° C. for 60 minutes. 6. Add 18 μL of Detection Solution (1:800 diluted Progress bead stock, 1:400 diluted Tb stock, 80% Buffer A, and 20% Buffer B) into each well of detection plates. 7. Transfer 6 μL of assay solution from the assay plate to the detection plate. 8. Shake detection plates for 30 minutes. 9. Read plates in Envision with wavelength set at excitation 340 nm for Tb, emission 490 nm, and […]. 10. Calculation: TR-FRET Signal=(Reading at […])×2000000

Human DYRK1A = target: T2, Human DYRK1A (Homo sapiens, UniProt Q13627); test: DYRK1A Kinase TR-FRET (IMAP-Tb) Assay; assay type: biochemical; settings: for IC50: TR-FRET, ATP 70 μM, 37° C. for 60 minutes, averages of multiple runs, read-out: Enzyme IC50 DYRK1A; for inhibition at 10 µM: 10 μM test compound, reported where IC50 was not determined, read-out: Enzyme DYRK1A % inhibition at 10 μM test compound concentration
T2 construct: purchased Invitrogen PV3997
Description: The kinase TR-FRET (IMAP-Tb) assay uses a fluorescence labeled substrate peptide in the kinase reaction. Upon phosphorylation by the kinase, phosphopeptide is produced, which will be detected by the binding solution provided in IMAP TR-FRET binding kit. After the completion of the kinase reaction, the reaction will be stopped by adding the binding solution containing terbium tracer. This tracer is immobilized on the surface of the IMAP beads, which also contain metal ions on the beads that bind to the phospho-groups of the products. Thus the phosphorylated product of the reaction can enter into close proximity to the tracer, producing resonance energy transfer. Due to the long lifetime of terbium (Tb) fluorescence the detection can be run in time resolved mode, which virtually eliminates fluorescence interference from assay components or compounds.
The TR-FRET signal measurement from this assay, given as an IC50 measurement, is a measure of a test compound's ability to interfere with the phosphorylation of the peptide substrate, that is it inhibits the phosphorylation of the substrate peptide by DYRK1A, and is thus a measure of the test compound's ability to inhibit the activity of DYRK1A.
1. Human DYRK1A: from Invitrogen. Part # PV3997
2. Substrate Peptide: […]
3. IMAP TR-FRET IPP Explorer Kit: from Molecular Devices. Part # R8157 4. Kinase Assay Buffer (KAB): 10 mM HEPES pH 7.0, 50 mM NaCl, 5 mM MgCl2, 1 mM DTT, 1 mM NaVO4, 200 μg/mL BSA (0.02%) 5. Assay Plate: Remp polypropylene clear 384-well microplate. […] Detection Plate: Costa black 384-well microplate. […] Transfer 1.5 μL of 20× compound solution to each well of an assay plate. 2. Add to each well 22.5 μL of KAB Buffer. 3. Add to each well 3 μL of the solution of DYRK1A and ATP. […] Add to each well 3 μL of the substrate peptide. The assay concentration is 1.0 μM 5. Incubate the assay plates at 37° C. for 60 minutes. 6. Add 18 μL of Detection Solution (1:800 diluted Progress bead stock, 1:400 diluted Tb stock, 80% Buffer A, and 20% Buffer B) into each well of detection plates. 7. Transfer 6 μL of assay solution from the assay plate to the detection plate. 8. Shake detection plates for 30 minutes. 9. Read plates in Envision with wavelength set at excitation 340 nm for Tb, emission 490 nm, and […].

T1 sequence (Q9Y463 whole entry): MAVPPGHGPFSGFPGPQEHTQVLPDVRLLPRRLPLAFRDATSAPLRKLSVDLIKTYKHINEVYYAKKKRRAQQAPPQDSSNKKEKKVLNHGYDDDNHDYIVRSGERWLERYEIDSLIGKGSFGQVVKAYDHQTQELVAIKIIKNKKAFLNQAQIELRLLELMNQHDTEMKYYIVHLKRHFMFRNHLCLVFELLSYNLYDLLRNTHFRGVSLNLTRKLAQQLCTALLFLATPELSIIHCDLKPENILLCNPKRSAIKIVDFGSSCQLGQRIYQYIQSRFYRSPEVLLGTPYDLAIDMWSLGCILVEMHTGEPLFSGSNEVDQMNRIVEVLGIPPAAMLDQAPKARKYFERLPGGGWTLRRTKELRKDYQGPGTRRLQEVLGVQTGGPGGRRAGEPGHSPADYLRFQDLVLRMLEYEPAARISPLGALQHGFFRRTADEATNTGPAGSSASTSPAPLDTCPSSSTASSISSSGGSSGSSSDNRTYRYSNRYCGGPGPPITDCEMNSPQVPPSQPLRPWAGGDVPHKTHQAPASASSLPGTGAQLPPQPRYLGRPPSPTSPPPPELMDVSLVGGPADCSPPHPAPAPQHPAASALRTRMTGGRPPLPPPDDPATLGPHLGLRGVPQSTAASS

Structure (SMILES) | IC50 (Human DYRK1B) | IC50 (Human DYRK1A) | inhibition at 10 µM (Human DYRK1B) | inhibition at 10 µM (Human DYRK1A)
COCCOc1cc2cc(C(=O)Nc3cc(C(=O)N[C@@H](CCN)c4ccccc4)ccc3C)c(=O)[nH]c2cc1OC (single isomer, unassigned) [Example 59] | 4.91 µM | 2.38 µM |  | 
COc1cc2cc(C(=O)Nc3cc(C(=O)NC(CCN)c4ccccc4)ccc3C)c(=O)[nH]c2cc1OC (stereo in doubt) [Example 48, 6,7-Dimethoxy-2-oxo-1,2-dihydro-quinoline-3-carboxylic acid [5-((S)-3-amino-1-phenyl-propylcarbamoyl)-2-methyl-phenyl]-amide] |  | 1.02 µM | 39% | 
COc1cc2cc(C(=O)Nc3cc(C(=O)N(C)C)ccc3Cl)c(=O)[nH]c2cc1OC [Example 20, 6,7-Dimethoxy-2-oxo-1,2-dihydro-quinoline-3-carboxylic acid (2-chloro-5-dimethylcarbamoyl-phenyl)-amide] | 5.09 µM | 1.13 µM |  | 
COc1cc2cc(C(=O)Nc3ccncc3C)c(=O)[nH]c2cc1OC [Example 21, 6,7-Dimethoxy-2-oxo-1,2-dihydro-quinoline-3-carboxylic acid (3-methyl-pyridin-4-yl)-amide] | 5.48 µM | > 10 µM |  | 
COc1cc2cc(C(=O)Nc3cc(-c4nnn[nH]4)ccc3C)c(=O)[nH]c2cc1OC [Example 22, 6,7-Dimethoxy-2-oxo-1,2-dihydro-quinoline-3-carboxylic acid [2-methyl-5-(1H-tetrazol-5-yl)-phenyl]-amide] | 0.719 µM | > 10 µM |  | 
COCCOc1cc2cc(C(=O)Nc3cc(-c4nnn[nH]4)ccc3C)c(=O)[nH]c2cc1OC [Example 24, 7-Methoxy-6-(2-methoxy-ethoxy)-2-oxo-1,2-dihydro-quinoline-3-carboxylic acid [2-methyl-5-(1H-tetrazol-5-yl)-phenyl]-amide] | 2.67 µM | 1.76 µM |  | 
COCCOc1cc2cc(C(=O)Nc3cc(C(=O)OC)ccc3C)c(=O)[nH]c2cc1OCCOC [Example 25, 3-{[6,7-Bis-(2-methoxy-ethoxy)-2-oxo-1,2-dihydro-quinoline-3-carbonyl]-amino}-4-methyl-benzoic acid methyl ester] | 0.911 µM | 0.604 µM |  | 
COCCOc1cc2[nH]c(=O)c(C(=O)Nc3cc(C(=O)OC)ccc3C)cc2cc1OC [Example 26, 3-{[6-Methoxy-7-(2-methoxy-ethoxy)-2-oxo-1,2-dihydro-quinoline-3-carbonyl]-amino}-4-methyl-benzoic acid methyl ester] | 6.42 µM | 5.14 µM |  | 
COCCOc1cc2[nH]c(=O)c(C(=O)Nc3cc(-c4nnn[nH]4)ccc3C)cc2cc1OC [Example 27, 6-Methoxy-7-(2-methoxy-ethoxy)-2-oxo-1,2-dihydro-quinoline-3-carboxylic acid [2-methyl-5-(1H-tetrazol-5-yl)-phenyl]-amide] | 6.59 µM |  |  | 41%
COCCOc1cc2cc(C(=O)Nc3cc(-c4nnn[nH]4)ccc3C)c(=O)[nH]c2cc1OCCOC [Example 28, 6,7-Bis-(2-methoxy-ethoxy)-2-oxo-1,2-dihydro-quinoline-3-carboxylic acid [2-methyl-5-(1H-tetrazol-5-yl)-phenyl]-amide] | 5.05 µM |  |  | 49%
COc1cc2cc(C(=O)Nc3cc(C(=O)NCCCN4CCOCC4)ccc3C)c(=O)[nH]c2cc1OC [Example 32, 6,7-Dimethoxy-2-oxo-1,2-dihydro-quinoline-3-carboxylic acid [2-methyl-5-(3-morpholin-4-yl-propylcarbamoyl)-phenyl]-amide] | > 10 µM | 3.62 µM |  | 
COc1cc2cc(C(=O)Nc3cc(C(=O)NC(CO)C(C)C)ccc3C)c(=O)[nH]c2cc1OC (centres unmarked) [Example 33, 6,7-Dimethoxy-2-oxo-1,2-dihydro-quinoline-3-carboxylic acid [5-(1-hydroxymethyl-2-methyl-propylcarbamoyl)-2-methyl-phenyl]-amide] |  |  | 36% | 36%
COc1cc2cc(C(=O)Nc3ccncc3Cl)c(=O)[nH]c2cc1OC [Example 36, 6,7-Dimethoxy-2-oxo-1,2-dihydro-quinoline-3-carboxylic acid (3-chloro-pyridin-4-yl)-amide] |  | 0.239 µM | 28% | 
COc1cc2cc(C(=O)Nc3cc(C(=O)NCc4cccc(Cl)c4)ccc3C)c(=O)[nH]c2cc1OC [Example 40, 6,7-Dimethoxy-2-oxo-1,2-dihydro-quinoline-3-carboxylic acid [5-(3-chloro-benzylcarbamoyl)-2-methyl-phenyl]-amide] |  | 0.182 µM | 34% | 
COc1cc2cc(C(=O)Nc3cc(C(=O)NCC4CCCCC4)ccc3C)c(=O)[nH]c2cc1OC [Example 41, 6,7-Dimethoxy-2-oxo-1,2-dihydro-quinoline-3-carboxylic acid [5-(cyclohexylmethyl-carbamoyl)-2-methyl-phenyl]-amide] | 2.59 µM | 4.59 µM |  | 
COc1cc2cc(C(=O)Nc3cc(-c4ncco4)ccc3C)c(=O)[nH]c2cc1OC [Example 51, 6,7-Dimethoxy-2-oxo-1,2-dihydro-quinoline-3-carboxylic acid (2-methyl-5-oxazol-2-yl-phenyl)-amide] |  | 0.592 µM | 42% | 
COc1cc2cc(C(=O)Nc3cc(C(=O)N[C@@H](CO)c4ccccc4)ccc3C)c(=O)[nH]c2cc1OC [Example 56, (R)-N-(5-(2-Hydroxy-1-phenylethylcarbamoyl)-2-methylphenyl)-6,7-dimethoxy-2-oxo-1,2-dihydroquinoline-3-carboxamide] | > 10 µM |  |  | 31%
COc1cc2cc(C(=O)Nc3cc(C(=O)N[C@H](CO)CC(C)C)ccc3C)c(=O)[nH]c2cc1OC [Example 65, (S)-N-(5-(1-Hydroxy-4-methylpentan-2-ylcarbamoyl)-2-methylphenyl)-6,7-dimethoxy-2-oxo-1,2-dihydroquinoline-3-carboxamide] |  | 4.31 µM | 26% | 
COc1cc2cc(C(=O)Nc3cc(C(=O)N[C@@H](CO)CC(C)C)ccc3C)c(=O)[nH]c2cc1OC [Example 66, (R)-N-(5-(1-Hydroxy-4-methylpentan-2-ylcarbamoyl)-2-methylphenyl)-6,7-dimethoxy-2-oxo-1,2-dihydroquinoline-3-carboxamide] |  | > 10 µM | 13% | 
